{
  "source": "patent US8318798B2",
  "about": "“Therapeutic agent for neurodegenerative disease” (priority 2005, dated 2012)",
  "key": {"[1]": {"target": "T1, DJ-1 protein (Homo sapiens, UniProt Q99497)", "T1 sequence (Q99497 1-189)": "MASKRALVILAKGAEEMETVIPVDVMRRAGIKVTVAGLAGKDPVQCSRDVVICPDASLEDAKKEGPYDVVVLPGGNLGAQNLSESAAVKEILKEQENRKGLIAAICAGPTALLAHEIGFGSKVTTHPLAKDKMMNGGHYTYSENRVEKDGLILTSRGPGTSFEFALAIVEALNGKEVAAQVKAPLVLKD", "experiment": "Suppression of transition of DJ-1 to oxidized form (H2O2 treatment, isoelectric focusing)", "format": "biochemical", "conditions": "0.2 mM or 2 mM H2O2, room temperature 1 hour; isoelectric focusing (FIG. 12)", "method": "In this example, it was confirmed that compound 1 and compound 5 suppressed the transition of DJ-1 to an oxidized form.\n0.5 mg of purified DJ-1 protein was dissolved in 1 mL of PBS. 10 μL of 1 mM compound 1, 5, or 7 was added to 500 μL of this DJ-1 protein solution, and rotated at 4° C. for 1 hour. Subsequently, 0.4 or 4 mM hydrogen peroxide (H2O2) was added thereto, the mixture was allowed to stand at room temperature for 1 hour then the hydrogen peroxide concentration became 0.2 mM or 2 mM. Further, dialysis was carried out 3 times with PBS for a total of 4.5 hours, followed by an isoelectric focusing 0.5 μg of the DJ-1 protein . The reagents used in the isoelectric focusing were as follows. • Gel solution for isoelectric focusing: 9.2 M Urea, 2% NP-40, 4% acrylamide, 1% Ampholine (pH 5-8; Amersham Bioscience), 1% Ampholine (pH 3-10; Amersham Bioscience) • Sample Buffer: 5 M Urea, 2 M ThioUrea, 2% NP-40, 5% Glycerin, 5% 2-mercaptoethanol, 1.6% Ampholine (pH 5-8), 0.4% Ampholine (pH 3.5-10) • Protection solution: 8 M Urea, 0.8% Ampholine (pH 5-8), 0.2% • Ampholine (pH 3.5-10) • Electrophoresis Buffer+electrode: 0.02 M Phosphoric acid • −electrode: 0.02 M NaOH • Towbin: 25 mM Tris, 192 mM Glycine"}, "[2]": {"target": "T1, DJ-1 protein", "experiment": "Binding to DJ-1 protein by AffinixQ quartz oscillator frequency change", "conditions": "compound fixed on sensor chip; DJ-1 protein vs BSA added (FIG. 11)", "source_text": "The AffinixQ is an instrument for quantifying interaction between biomolecules at the order of nanograms by changes in frequency of the crystal oscillator. It utilizes the proportional relationship between change in frequency of the quartz oscillator and the weight of the adherings on the surface of the quartz oscillator.\nThe compound was fixed on top of the sensor chip, which is the oscillator, using an amino coupling reagent. The sensor chip onto which the compound had been fixed was immersed in a measurement vessel filled with 8 mL of PBS (phosphate buffer), and held until the frequency became constant. Following this, 8 μL of 1 mg/mL DJ-1 protein or BSA (bovine serum albumin) was added to the measurement vessel."}, "[3]": {"system": "dopamine neurons", "experiment": "TH staining of dopamine neurons in rat midbrain substantia nigra after 6-OHDA injection", "format": "in vivo", "conditions": "1 mM compound injected simultaneously with 6 mM 6-OHDA (FIG. 16)", "method": "The midbrain substantia nigra (SNpc) was dissected out and fixed in a 100 mM phosphate buffer containing 4% of paraformaldehyde for 2 days, and then submerged in 100 mM phosphate buffer (containing 15% of sucrose and 0.1% of sodium azide). A 20 μm thick slices were prepared using Cryostat, and submerged in a 100 mM phosphate buffer containing 0.3% Triton X-100 (PBS-T).\nThese brain slices were reacted with anti-tyrosine hydroxylase (TH: a dopamine-biosynthetic enzyme and marker for dopamine neurons, manufactured by Sigma, 1:20,000 dilution) at 4° C. for 3 days, then washed, and reacted with a biotinylated anti-mouse IgG antibody (1:2,000 dilution) at room temperature for 2 hours. Subsequently, avidin peroxidase coloration was carried out using an ABC kit (Vector Laboratories) at room temperature for 1 hour. After washing several times with PBS-T, coloration was carried out by nickel ammonium-containing 3,3′-diaminobenzidine (DAB).\nIn the left substantia nigra into which only 6-OHDA was injected, TH staining was not observed and thus dopaminergic neuron death was observed. In the right substantia nigra, which was not injected with 6-OHDA, live dopamine neurons were observed (FIG. 16 (1))."}, "[4]": {"system": "mitochondrial complex 1", "experiment": "Maintenance of mitochondrial Complex 1 activity in 6-hydroxydopamine-treated SH-SY5Y cells", "format": "cell-based, human", "conditions": "compound 1 μM, 24 h before 50 μM 6-hydroxydopamine, 6 h; compared with control (FIG. 13)", "method": "In this example, the effect of compounds 1, 5, and 8 in maintaining the activity of mitochondrial complex 1 was examined.\n6-Hydroxydopamine induces oxidative stress by degrading the enzymic activity of Complex 1 and thereby causing a functional disorder. It is considered that the compounds identified here would suppress neuronal death due to oxidative stress by preventing deactivation of complex 1. Therefore, changes in activity of complex 1 resulting from addition of the compound was measured.\nSH-SY5Y human neurons were plated onto a 10 cm dish and cultured to 80% confluency. Compounds 1, 5, and 8 individually were added at the compound concentration of 1 μM, or sterile water was added. 24 hours after the addition of the compound or sterile water, 6-hydroxydopamine (PBS solvent) was added at a 6-hydroxydopamine concentration of 50 μM, or the same amount of PBS (containing no 6-hydroxydopamine) was added. 6 hours after the addition of 6-hydroxydopamine, the cells were collected. […] After quantifying the protein, 100 μg of the mitochondrial protein was added to a cuvette filled with a reaction buffer, and the total amount was made up to 480 μL. After incubation at 37° C. for 3 minutes, 20 μL of 5 mM NADH was added to the cuvette, and decrease in absorbance at 340 nm was monitored for 4 minutes using an absorptiometer. […]"}, "[5]": {"system": "SH-SY5Y human neurons", "experiment": "Suppression of 6-hydroxydopamine-induced cell death of SH-SY5Y human neurons (Cell Counting Kit-8 / MTT assay)", "format": "cell-based", "conditions": "compound 1 μM, 24 h before 100 μM 6-hydroxydopamine, 40 h; compared with control (FIG. 9)", "method": "In this example, the effect of compounds 1 to 8 in suppressing cell death of SH-SY5Y human neurons was examined.\nSH-SY5Y human neurons ([…], USA) were plated on a 96-well plate, and cultured to 80% confluency.\nCompounds 1 to 8 in sterile aqueous solutions were individually added thereto at a sample concentration of 1 μM, or sterile water was added as a control.\n24 hours after the addition of compounds 1 to 8 or sterile water, 6-hydroxydopamine (PBS solvent) (Wako Pure Chemical Industries, Ltd.) was added to each at a 6-hydroxydopamine concentration of 100 μM, or the same amount of PBS (containing no 6-hydroxydopamine) was added. Furthermore, 40 hours after the addition of 6-hydroxydopamine, Cell Counting Kit-8 was added for carrying out an MTT assay.\nAfter 3 hours, a viable cell count was measured by measuring the absorbance at wavelength of 450 nm. For each of compounds 1 to 8 and the control, the viability was obtained from ‘(the viable cell count when 6-hydroxydopamine was added)/(the viable cell count when no 6-hydroxydopamine was added)’.\nCompared with the control and compounds 7 and 8, it can be seen that the addition of any one of compounds 1 to 6 enhances the viability."}, "[6]": {"system": "rats injected with 6-hydroxydopamine (6-OHDA)", "experiment": "Methamphetamine-induced rotation of rats injected with 6-OHDA into midbrain left substantia nigra", "format": "in vivo, rat", "conditions": "1 mM compound injected simultaneously with 6 mM 6-OHDA into left substantia nigra; methamphetamine after 9 weeks", "method": "In this example, compound 1, 5, or 8 was injected into rat midbrain left substantia nigra and the effect thereof was examined. • (1) Either 6 mM of 6-hydroxydopamine (6-OHDA) alone or mixtures of 6 mM of 6-OHDA and 1 mM of each compound was injected into the midbrain left substantia nigra (4.8 mm×1.8 mm, 7.8 mm depth) of rats (Wister rat, male, 250 g). Where the rat was injected with 6 mM of 6-hydroxydopamine (6-OHDA) in midbrain left substantia nigra, the right-side substantia nigra was intact but in the left-side oxidative stress induced the death of dopamine neurons, and the rat rotate in a clockwise direction due to the imbalanced amount of acting dopamine, showing a behavioral abnormality characteristic of Parkinson's disease patients.\nAfter 9 weeks, the rats were injected with methamphetamine (Dainippon Pharma Co., Ltd.), which causes a dopamine release, leading to a release of large amount of dopamine from dopamine neurons into the striatum. Because of the imbalance in the amounts of released dopamine between the left and right substantia nigra the rats started to rotate in a clockwise direction. The rats were placed in a rotameter, and the number of rotations was measured. The total number of rotations over 60 minutes is shown in FIG. 14, and the number of rotations at every 5 minutes over time is shown in FIG. 15. […]"}},
  "data": [
    {"smiles": "CC1(C)OC2C(=O)O[C@@H](n3cnc4c(N)ncnc43)C2O1", "note": "(some centres unmarked) [compound 1]", "values": [
      {"measurement": "transition of DJ-1 protein to an oxidized form", "setting": "[1]", "value": "suppressed the transition of DJ-1 protein to an oxidized form"},
      {"measurement": "binding to DJ-1 protein (frequency change)", "setting": "[2]", "value": "bind to DJ-1 protein"},
      {"measurement": "dopaminergic neuronal death in left substantia nigra (TH staining)", "setting": "[3]", "value": "neuronal death was considerably suppressed"},
      {"measurement": "Complex 1 activity", "setting": "[4]", "value": "Complex 1 activity was maintained"}
    ]},
    {"smiles": "CS(=O)(=O)O[C@H]1CO[C@@H](Cn2cnc3c(N)ncnc32)C1O", "note": "(some centres unmarked) [compound 2]", "values": [
      {"measurement": "binding to DJ-1 protein (frequency change)", "setting": "[2]", "value": "bind to DJ-1 protein"}
    ]},
    {"smiles": "CC(=O)O[C@H](CO)[C@H](O)C(O)Cn1cnc2c(N)ncnc21", "note": "(some centres unmarked) [compound 4]", "values": [
      {"measurement": "binding to DJ-1 protein (frequency change)", "setting": "[2]", "value": "bind to DJ-1 protein"}
    ]},
    {"smiles": "COc1ccc(CC(=O)NCCc2cc(OC)c3c(c2)OCO3)cc1OCc1ccccc1", "note": "[compound 5]", "values": [
      {"measurement": "transition of DJ-1 protein to an oxidized form", "setting": "[1]", "value": "suppressed the transition of DJ-1 protein to an oxidized form"},
      {"measurement": "dopaminergic neuronal death in left substantia nigra (TH staining)", "setting": "[3]", "value": "neuronal death was considerably suppressed"},
      {"measurement": "Complex 1 activity", "setting": "[4]", "value": "Complex 1 activity was maintained"}
    ]},
    {"smiles": "NC(=O)C(CS(N)(=O)=O)NC(=O)C(Cc1ccccc1)NC(=O)CNC(=O)OCc1ccccc1", "note": "(centres unmarked) [compound 6]", "values": [
      {"measurement": "binding to DJ-1 protein (frequency change)", "setting": "[2]", "value": "bind to DJ-1 protein"}
    ]},
    {"smiles": "CC1(C)OC2C(O1)[C@@H](CO)O[C@H]2n1cnc2c(NC(=O)C(C)(C)C)ncnc21", "note": "(some centres unmarked) [compound 7]", "values": [
      {"measurement": "viability (effect in suppressing cell death)", "setting": "[5]", "value": "did not have such effects"}
    ]},
    {"smiles": "COCO[C@@H](/C=C/C(=O)OCc1ccccc1)[C@@H](CCO[Si](C)(C)C(C)(C)C)C(Cc1ccccc1)Cc1ccccc1", "note": "[compound 8]", "values": [
      {"measurement": "viability (effect in suppressing cell death)", "setting": "[5]", "value": "did not have such effects"},
      {"measurement": "dopaminergic neuronal death in left substantia nigra (TH staining)", "setting": "[3]", "value": "did not have such effect"},
      {"measurement": "effect on behavioral abnormality (number of rotations), in words", "setting": "[6]", "value": "did not show such effect"}
    ]}
  ]
}
